For orientation: CC50 means the concentration giving 50% cytotoxicity. The Kd is the equilibrium constant for the complex coming apart. A word on the EC50: it is the concentration needed to bring the measured effect to its halfway point.

The nature of data set [1]: Cytotoxicity test in HEp-2 cells (CCK8 cell viability). It is filed as cell-based. Particulars: human; HEp-2 cells, CCK8, 1 day; read-out: CC50. An outline of the steps:
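Compound dilutions (final DMSO 0.5%) were applied for 1 day to HEp-2 cells plated at 30,000 per well the day before. CCK8 signal gave survival relative to cell and medium controls, and a four-parameter log(inhibitor)-response fit yielded CC50.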

The target in data set [2] is T1, hMPV-N46 (127-172) (Human metapneumovirus, UniProt Q6WB98).
T1 construct: hMPV-N46 (127-172)
T1 sequence (Q6WB98 127-172): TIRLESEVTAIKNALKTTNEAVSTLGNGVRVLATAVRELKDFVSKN
Briefly: SPR affinity to hMPV-N46 coupled on CM5 chip. It is filed as binding. The method, then: hMPV and hPIV were two viruses having a typical Class I fusion protein-F protein. An F protein precursor F0 was cracked into F1 and F2 subunits. […] When the compound flowed through a chip surface, changes in an SPR signal were monitored in real time, binding and dissociation processes were recorded, and a binding rate constant (ka) and a dissociation rate constant (kd) were further obtained through kinetic analysis, thereby calculating an equilibrium dissociation constant (KD=kd/ka).
A CM5 chip with a catalog number 29149603, an amino coupling reagent kit with a catalog number BR100050, HBS-EP+Buffer (10×), sodium acetate (pH 4.0), and a 10 mM glycine-HCl buffer (pH 2.0) were all purchased from GE Health.
CM5 chip coupling: Channels 2 and 4 of the CM5 chip were activated for 7 min by using a freshly-prepared mixture of 50 mM Hydroxy succinimide (NHS) and 200 mM 1-(3-Dimethylaminopropyl)-3-ethylcarbodiimide (EDC) according to 1:1; and then, hMPV-N46 or hPIV-N51 was diluted and dissolved with sodium acetate with 4.0 pH to a concentration of 30 μM, with a flow rate of 10 μl/min and time of 600 s. An experimental buffer was HBS-EP+buffer (1×). Finally, the chip was blocked with 1 M ethanolamine. The instrument was set to a temperature of 25° C.
Affinity detection: the buffer used in the experiment was HBS-EP+buffer (1×), and a multi-cycle dynamic mode was used. Channels 1 and 3 of the chip served as blank reference channels; polypeptides to be detected sequentially flowed through Channels 2 and 4 at concentrations of 0 μM, 0.04 µM, 0.12 µM, 0.37 μM, 1.11 µM, 3.33 µM, 10 µM, and 30 μM; the flow rate was 30 μl/min, binding was performed for 180 s, and dissociation was performed for 120 s. Finally, the chip was regenerated by injecting 10 mM glycine (pH 2.0). The instrument was set to a temperature of 25° C.

Data set [3] has as its system hPIV3 C243 virus strain. It is filed as cell-based, hPIV. The settings on record: LLC-MK2 cells, hPIV3 C243, plaque reduction; read-out: EC50 against hPIV3 virus. The method, then: Rhesus monkey kidney cells (LLC-MK2) were sourced from the ATCC, with a catalog number CCL-7.1. The cells were cultured in a DMEM culture solution in which 10% fetal bovine serum, 1% non-essential amino acids, 1% sodium pyruvate, 1% L-glutamine, 100 U/ml penicillin, and 100 μg/ml streptomycin were added.
An HPIV-3 plaque experiment culture medium consisted of a DMEM culture solution added with 2% fetal bovine serum, 1% non-essential amino acids, 1% sodium pyruvate, 1% L-glutamine, 100 U/ml penicillin, and 100 μg/ml streptomycin.
The hPIV Type 3 (hPIV3 C243) was sourced from the ATCC, with a catalog number VR-93.
This study used the plaque reduction experiment to detect the in-vitro activity of the test sample against the hPIV3 C243 virus strain, and Human Anti-HPIV3 Monoclonal Antibody, clone PIA174 was an experimental system control. The test sample and a system experimental antibody were tested at 8 concentrations in duplicated wells.
The LLC-MK2 cells were digested with trypsin and then diluted to a concentration of 400,000 cells per milliliter by using a cell culture solution containing 2% serum. The diluted cells were added to a 96-well cell test board, with 100 μL per well, corresponding to 40,000 cells per well. The cells were cultured overnight in a 37° C. incubator with 5% CO2.
On the next day, the sample diluted at a fold ratio and an equal volume of virus (approximately 200 PFU per well) were well mixed and incubated at 37° C. in 5% CO2 for 1 hour. Then, the culture solution in the 96-well cell test board was discarded, the sample virus mixed solution (100 μL) was added to the 96-well cell culture plate, and incubated at 37° C. in 5% CO2 for 2 hours. After 2 h, the sample virus mixed solution was discarded, 200 μL of an experiment culture medium containing the test sample with a corresponding concentration was added, and the culture solution contained 0.8% CMC. A final concentration of DMSO in the culture solution was 0.5%. A control antibody was directly added to the experiment culture solution containing 0.8% CMC. A cell control (cells, without compound treatment or viral infection) and a viral control (cell infection virus, without compound treatment) were set. The cells were cultured for 1 day in the 37° C. incubator with 5% CO2.
The cells were fixed with 4% paraformaldehyde, and then permeabilization was performed with 0.5% Triton X-100. After the plate was washed with DPBS, a hPIV specific antibody (1:2000 dilution) was added and incubated at 37° C. for 1.5 h. Then, a secondary antibody (1:500 dilution) was added and incubated at 37° C. for 1 hour. The secondary antibody was discarded, a TrueBlue solution was added, dyeing was performed for approximately 10 minutes; and the plate was washed with running water and then air-dried, and the number of spots in each well was counted by using a microplate imaging counter.
Raw data was used for calculating the antiviral activity of the samples, and a calculation formula was shown as follows.
% inhibition rate=100−(sample value-cell control average value)/(virus control average value-cell control average value)×100
Non-linear fitting analysis was performed on the inhibition rate of the sample by using GraphPad Prism (version 10), so as to calculate an EC50 value for the sample. A fitting formula was log (inhibitor) vs. response-Variable slope (four parameters).

Where a SMILES comes first, the peptide text is derived from it. The star is where a group is joined. Succinyl(4-O-cholesteryl) = CC(C)CCC[C@@H](C)[C@H]1CC[C@H]2[C@@H]3CC=C4C[C@@H](OC(=O)CCC(=O)*)CC[C@]4(C)[C@H]3CC[C@]12C

`CC[C@H](C)[C@H](NC(=O)[C@H](CO)NC(=O)[C@H](C)NC(=O)[C@H](CC(=O)O)NC(=O)[C@H](Cc1ccccc1)NC(=O)[C@H](CCC(=O)O)NC(=O)[C@H](CC(=O)O)NC(=O)[C@H](Cc1c[nH]c2ccccc12)NC(C)=O)C(=O)N[C@@H](CO)C(=O)N[C@@H](CCC(N)=O)C(=O)N[C@H](C(=O)N[C@@H](CC(N)=O)C(=O)N[C@@H](CCC(=O)O)C(=O)N[C@@H](CCCCN)C(=O)N[C@H](C(=O)N[C@@H](CC(N)=O)C(=O)N[C@@H](CCC(N)=O)C(=O)N[C@@H](CO)C(=O)N[C@@H](CC(C)C)C(=O)N[C@@H](CCC(=O)O)C(=O)N[C@@H](CCC(=O)O)C(=O)N[C@H](C(=O)N[C@@H](CCCNC(=N)N)C(=O)N[C@@H](CCCCN)C(=O)N[C@@H](CO)C(=O)N[C@@H](CC(=O)O)C(=O)N[C@@H](CCC(=O)O)C(=O)N[C@@H](CC(C)C)C(=O)N[C@@H](CC(C)C)C(=O)N[C@@H](Cc1c[nH]cn1)C(=O)N[C@@H](CC(N)=O)C(=O)N[C@@H](CCC(=O)O)C(=O)N[C@@H](C)C(=O)N[C@@H](C)C(=O)N[C@@H](C)C(=O)N[C@@H](CCCCN)C(=O)N[C@@H](CCCCNC(=O)CCC(=O)O[C@H]1CC[C@@]2(C)C(=CC[C@H]3[C@@H]4CC[C@H]([C@H](C)CCCC(C)C)[C@@]4(C)CC[C@@H]32)C1)C(N)=O)[C@@H](C)CC)[C@@H](C)CC)C(C)C` [Compound 45] (Ac-WDEFDASISQVNEKINQSLEEIRKSDELLHNEAAAKK(Succinyl(4-O-cholesteryl))-NH2): the CC50 at 1 day in data set [1] was 9.94 µM. Binding in data set [2] was put at a Kd of 70.6 µM. The EC50 in data set [3] came out at 0.0363 µM.
In the same order, the values of `CC[C@H](C)[C@H](NC(=O)[C@H](CO)NC(=O)[C@H](C)NC(=O)[C@H](CC(=O)O)NC(=O)[C@H](Cc1ccccc1)NC(=O)[C@H](CCC(=O)O)NC(=O)[C@H](CC(=O)O)NC(=O)[C@H](Cc1c[nH]c2ccccc12)NC(C)=O)C(=O)N[C@@H](CCC(=O)O)C(=O)N[C@@H](CCC(=O)O)C(=O)N[C@H](C(=O)N[C@@H](CC(N)=O)C(=O)N[C@@H](CCCNC(=N)N)C(=O)N[C@@H](CCCNC(=N)N)C(=O)N[C@H](C(=O)N[C@@H](CCC(=O)O)C(=O)N[C@@H](CCC(=O)O)C(=O)N[C@@H](CO)C(=O)N[C@@H](CC(C)C)C(=O)N[C@@H](CCCNC(=N)N)C(=O)N[C@@H](CCCNC(=N)N)C(=O)N[C@H](C(=O)N[C@@H](CCC(=O)O)C(=O)N[C@@H](CCC(=O)O)C(=O)N[C@@H](CO)C(=O)N[C@@H](CC(=O)O)C(=O)N[C@@H](CCCNC(=N)N)C(=O)N[C@@H](CCCNC(=N)N)C(=O)N[C@@H](CC(C)C)C(=O)N[C@@H](CCC(=O)O)C(=O)N[C@@H](CCC(=O)O)C(=O)N[C@H](C(=O)N[C@@H](CCC(=O)O)C(=O)N[C@@H](C)C(=O)N[C@@H](C)C(=O)N[C@@H](C)C(=O)N[C@@H](CCCCN)C(=O)N[C@@H](CCCCNC(=O)CCC(=O)O[C@H]1CC[C@@]2(C)C(=CC[C@H]3[C@@H]4CC[C@H]([C@H](C)CCCC(C)C)[C@@]4(C)CC[C@@H]32)C1)C(N)=O)C(C)C)[C@@H](C)CC)[C@@H](C)CC)C(C)C` [Compound 43] (Ac-WDEFDASIEEVNRRIEESLRRIEESDRRLEEVEAAAKK(Succinyl(4-O-cholesteryl))-NH2) are 12.2 µM, 71.4 µM and 0.0161 µM.
For “Ac-WDEFDASISQVNEKINQSLEEIRKSDELLHNVNALEAAAKK(Succinyl(4-O-cholesteryl))-NH2 [Compound 38]” the same measures were 10.9 µM, 0.392 µM and 0.0264 µM.

The record behind these values is US20260250325A1, “Antiviral Polypeptide Membrane Fusion Inhibitor, and Preparation Method and Application Thereof” (priority 2025, published 2026).
